The results in this text go back to patent publication US12162888B2, “Carboxamides as ubiquitin-specific protease inhibitors” (Valo Early Discovery, Inc., priority 2018, dated 2024).

Structures are written as SMILES. Like-named read-outs stand apart in the source and are kept apart here. A value given as a limit tells only on which side of the number the result lay.

This assay concerns the target T1, USP28 (His-tagged USP28-FL-mammalian) (Homo sapiens, UniProt Q96RU2).
T1 construct: Expression of USP28 (1-1077)-TEV-6*His (pTT5 vector) was carried out in Expi293f cells; made in house; host or cells: Expi293F cells (pTT5 vector)
T1 sequence (Q96RU2 1-1077): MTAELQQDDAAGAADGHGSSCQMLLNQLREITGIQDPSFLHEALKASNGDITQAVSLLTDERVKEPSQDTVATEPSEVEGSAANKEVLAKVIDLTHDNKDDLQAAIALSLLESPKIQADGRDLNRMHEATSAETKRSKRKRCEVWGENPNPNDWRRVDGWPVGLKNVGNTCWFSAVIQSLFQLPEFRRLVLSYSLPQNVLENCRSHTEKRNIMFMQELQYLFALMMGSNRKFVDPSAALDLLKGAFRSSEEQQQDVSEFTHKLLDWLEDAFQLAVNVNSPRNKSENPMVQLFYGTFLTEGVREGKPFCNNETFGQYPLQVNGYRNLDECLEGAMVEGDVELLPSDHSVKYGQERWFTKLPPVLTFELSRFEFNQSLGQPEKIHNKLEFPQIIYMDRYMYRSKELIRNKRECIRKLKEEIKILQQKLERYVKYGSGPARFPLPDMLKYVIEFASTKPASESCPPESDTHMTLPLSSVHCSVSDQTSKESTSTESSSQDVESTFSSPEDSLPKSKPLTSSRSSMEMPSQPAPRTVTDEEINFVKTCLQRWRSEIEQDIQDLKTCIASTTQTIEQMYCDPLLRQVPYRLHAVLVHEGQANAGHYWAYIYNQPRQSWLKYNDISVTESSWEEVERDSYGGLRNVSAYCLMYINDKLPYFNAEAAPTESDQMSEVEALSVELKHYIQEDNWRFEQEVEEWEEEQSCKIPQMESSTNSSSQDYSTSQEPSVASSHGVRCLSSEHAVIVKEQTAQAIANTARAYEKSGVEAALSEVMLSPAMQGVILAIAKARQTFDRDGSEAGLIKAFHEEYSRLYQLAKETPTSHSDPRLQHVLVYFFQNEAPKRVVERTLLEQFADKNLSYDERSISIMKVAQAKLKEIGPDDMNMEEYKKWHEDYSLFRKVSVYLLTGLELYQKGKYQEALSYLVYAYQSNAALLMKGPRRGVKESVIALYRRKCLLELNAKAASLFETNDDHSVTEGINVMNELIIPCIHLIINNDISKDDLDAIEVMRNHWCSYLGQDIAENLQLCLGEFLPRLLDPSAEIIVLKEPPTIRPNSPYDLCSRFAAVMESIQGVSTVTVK
The experiment in a line: Ubiquitin-Rhodamine 110 Assay for USP28 Activity, Example A-1(a). Type of assay: biochemical. The conditions noted are these: Ubiquitin-Rhodamine 110 assay. In a few lines:
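Full-length His-tagged human USP28 (1-1077), expressed in Expi293F cells, was used at […] with 25 nM Ub-Rh110 (<<Km) in 20 mM Tris pH 8.0, 3 mM BME, 0.03% BGG and 0.01% Triton X-100. Compounds (25 μM-1.3 nM, 10-point) were preincubated with enzyme for 30 min, and the reaction ran 45 min at room temperature before a citric acid stop. Fluorescence was read at 485/535 nm, and IC50 came from 4-parameter fits of percent inhibition.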

The mark [1] stands for this setting: read-out: USP28 A-1(a) IC50 range.
[2] abbreviates: biochemical IC50 range, read-out: USP28 A-1(a).

With `Cc1ccc2c(N)c(C(=O)N[C@H]3CCc4cc(N5CC6CNCC(C5)O6)cc(F)c4C3)sc2n1` (single isomer, unassigned) [Example 11-39], under setting [1], the IC50 was 0.2 to 2 µM. Take `Cc1ccc2c(N)c(C(=O)N[C@H]3CCc4nc(N5C[C@H](N)[C@@]6(CCOC6)C5)ccc4C3)sc2n1` [Example 437, 3-amino-N-[(6S)-2-[(5R,9R)-9-amino-2-oxa-7-azaspiro[4.4]nonan-7-yl]-5,6,7,8-tetrahydroquinolin-6-yl]-6-methylthieno[2,3-b]pyridine-2-carboxamide]: the IC50 under setting [1] was 0.05 to 0.2 µM. `CO[C@H]1CN(c2ccc3c(c2)OC[C@H](NC(=O)c2sc4nc(C)cnc4c2N)C3)C[C@@H]1N` [Example 117]: the IC50 under setting [1] is 0.001 to 0.05 µM.

Regarding `Cc1ccc2c(N)c(C(=O)N[C@H]3CCc4c(F)c(N5CC6CCC(C5)N6)cc(F)c4C3)sc2n1` (single isomer, unassigned) [Example 603], the IC50 under setting [2] is 0.001 to 0.05 µM.

Turning to `Cc1ccc2c(N)c(C(=O)N[C@@H]3CCc4c(C#N)c(N5CC6CCC(C5)N6)cc(F)c4C3)sc2n1` (single isomer, unassigned) [Example 14-18], the IC50 under setting [1] lay in the range of 0.05 to 0.2 µM.

In the case of `Cc1ccc2c(N)c(C(=O)N[C@H]3CCc4cc(N5CCNCC5)ccc4C3)sc2n1` (single isomer, unassigned) [Example 11-21], the IC50 under setting [1] fell in the range of 0.2 to 2 µM. On the same count and under the same terms, the result for `CCn1ccc2cc(C(=O)N[C@H]3CCc4nc(N5C[C@H](COC)[C@H](N)C5)ccc4C3)cnc21` (single isomer, unassigned) [Example 401] reads 0.2 to 2 µM; that for `Cc1cnc2c(N)c(C(=O)N[C@@H]3CCc4cc(N5C[C@H]6C[C@@H]5CN6)ccc4C3)sc2n1` (single isomer, unassigned) [Example 11-32], 0.2 to 2 µM; that for `CO[C@H]1CN(c2cc(F)c3c(c2C#N)CC[C@@H](NC(=O)c2sc4nc(C)ccc4c2N)C3)C[C@@H]1N` (single isomer, unassigned) [Example 14-24], 0.2 to 2 µM. `Cc1nc2sc(C(=O)N[C@H]3CCc4c(C#N)c(N5CCNCC5)cc(F)c4C3)c(N)c2s1` (single isomer, unassigned) [Example 14-14]: the IC50 under setting [1] is 0.001 to 0.05 µM. Consider `Cc1ccc2c(N)c(C(=O)N[C@H]3COc4cc(N5C[C@@H](N)[C@](C)(CF)C5)ccc4C3)sc2n1` [Example 661, 3-amino-N-[(3R)-7-[(3R,4S)-4-amino-3-(fluoromethyl)-3-methylpyrrolidin-1-yl]-3,4-dihydro-2H-1-benzopyran-3-yl]-6-methylthieno[2,3-b]pyridine-2-carboxamide], for which the IC50 under setting [2] fell in the range of 0.001 to 0.05 µM.

Turning to `CO[C@H]1CN(c2ccc3c(c2)CC[C@H](NC(=O)c2sc4nc(C)ccc4c2N)C3)C[C@H]1N` [Example 144, 3-amino-N-[(2S)-6-[(3R,4S)-3-amino-4-methoxypyrrolidin-1-yl]-1,2,3,4-tetrahydronaphthalen-2-yl]-6-methylthieno[2,3-b]pyridine-2-carboxamide], under setting [2], the IC50 lay within 0.05 to 0.2 µM. On to `CN[C@@H]1CCN(c2ccc3c(c2)CC[C@H](NC(=O)c2sc4nc(C)cnc4c2N)C3)C1` (single isomer, unassigned) [Example 11-27], for which, under setting [1], the IC50 is 0.05 to 0.2 µM. Same read-out and setting: to `Cc1cnc2c(N)c(C(=O)N[C@@H]3CCc4cc(N5C[C@@H]6C[C@H]5CN6)ccc4C3)sc2n1` (single isomer, unassigned) [Example 11-30] belongs 0.2 to 2 µM; to `Cc1cnc2c(N)c(C(=O)N[C@@H]3CCc4cc(N5CCNCC5)c(F)cc4C3)sc2n1` (single isomer, unassigned) [Example 21-11], 0.2 to 2 µM; to `Cc1cnc2c(N)c(C(=O)N[C@H]3CCc4cc(N5C[C@@H]6C[C@H]5CN6)ccc4C3)sc2n1` (single isomer, unassigned) [Example 11-29], 0.05 to 0.2 µM. For the compound `Cc1ccc2c(N)c(C(=O)N[C@H]3COc4cc(N5C[C@H](N)[C@]6(CCOC6)C5)ccc4C3)sc2n1` [Example 656, 3-amino-N-[(3R)-7-[(5S,9R)-9-amino-2-oxa-7-azaspiro[4.4]nonan-7-yl]-3,4-dihydro-2H-1-benzopyran-3-yl]-6-methylthieno[2,3-b]pyridine-2-carboxamide], the IC50 under setting [2] is 0.001 to 0.05 µM.

Regarding `Cc1ccc2c(N)c(C(=O)N[C@@H]3CCc4nc(N5C[C@H](CF)[C@H](N)C5)ncc4C3)sc2n1` [Example 446, 3-amino-N-[(6R)-2-[(3S,4S)-3-amino-4-(fluoromethyl)pyrrolidin-1-yl]-5,6,7,8-tetrahydroquinazolin-6-yl]-6-methylthieno[2,3-b]pyridine-2-carboxamide], under setting [1], the IC50 was in the range of 0.2 to 2 µM. Still for that read-out and setting: the result for `CO[C@H]1CN(c2cc(F)c3c(c2C#N)CC[C@H](NC(=O)c2sc4nc(C)ccc4c2N)C3)C[C@@H]1N` (single isomer, unassigned) [Example 14-23] reads 0.001 to 0.05 µM; that for `Cc1cnc2c(N)c(C(=O)N[C@H]3CCc4cc(N5CCNCC5)cc(F)c4C3)sc2n1` (single isomer, unassigned) [Example 11-38], 0.05 to 0.2 µM. Turning to `CO[C@@H]1CN(c2ccc3c(c2)OC[C@H](NC(=O)c2sc4nc(C)cnc4c2N)C3)C[C@@H]1N` [Example 147, 7-amino-N-[(3R)-7-[(3S,4R)-3-amino-4-methoxypyrrolidin-1-yl]-3,4-dihydro-2H-1-benzopyran-3-yl]-3-methylthieno[2,3-b]pyrazine-6-carboxamide], the IC50 under setting [2] fell in the range of 0.05 to 0.2 µM. For the compound `Cc1cnc2c(N)c(C(=O)N[C@H]3CCc4c(ccc(N5CCNCC5)c4F)C3)sc2n1` (single isomer, unassigned) [Example 21-10], the IC50 under setting [1] was > 2 µM. On the same count and under the same terms, the result for `Cc1cnc2c(N)c(C(=O)N[C@@H]3CCc4c(C#N)c(N5CC6CCC(C5)N6)cc(F)c4C3)sc2n1` (single isomer, unassigned) [Example 14-20] reads 0.2 to 2 µM. With `CN[C@H]1CN(c2ccc3c(c2)OC[C@H](NC(=O)c2sc4nc(C)ccc4c2N)C3)C[C@@H]1CF` [Example 662, 3-amino-N-[(3R)-7-[(3S,4R)-3-(fluoromethyl)-4-(methylamino)pyrrolidin-1-yl]-3,4-dihydro-2H-1-benzopyran-3-yl]-6-methylthieno[2,3-b]pyridine-2-carboxamide], under setting [2], the IC50 lay in the range of 0.001 to 0.05 µM.

`Cc1ccc2c(N)c(C(=O)N[C@H]3COc4cc(N5CCNCC5)ccc4[C@H]3C)sc2n1` (single isomer, unassigned) [Example 11-15]: the IC50 under setting [1] was > 2 µM.

For `Cc1ccc2c(N)c(C(=O)N[C@@H]3CCc4nc(N5C[C@@H](CF)[C@@H](N)C5)ncc4C3)sc2n1` [Example 445, 3-amino-N-[(6R)-2-[(3R,4R)-3-amino-4-(fluoromethyl)pyrrolidin-1-yl]-5,6,7,8-tetrahydroquinazolin-6-yl]-6-methylthieno[2,3-b]pyridine-2-carboxamide], the IC50 under setting [1] was in the range of 0.2 to 2 µM. The same measure, in the same setting: the result for `Cc1ccc2c(N)c(C(=O)N[C@@H]3COc4cc(N5CCNCC5)ccc4[C@@H]3C)sc2n1` (single isomer, unassigned) [Example 11-18] reads 0.2 to 2 µM. Turning to `Cc1ccc2c(N)c(C(=O)N[C@H]3COc4cc(N5C[C@H]6CC[C@@H]5CN6)ncc4C3)sc2n1` [Example 76, N-((R)-7-((1R,4R)-2,5-diazabicyclo[2.2.2]octan-2-yl)-3,4-dihydro-2H-pyrano[3,2-c]pyridin-3-yl)-3-amino-6-methylthieno[2,3-b]pyridine-2-carboxamide], the IC50 under setting [1] was 0.001 to 0.05 µM.

As to `O=C(N[C@H]1COc2cc(N3CCNCC3)ccc2C1)c1ccc(NCc2ccc(Cl)cc2Cl)nc1` [Example 697, 6-{[(2,4-dichlorophenyl)methyl]amino}-N-[(3R)-7-(piperazin-1-yl)-3,4-dihydro-2H-1-benzopyran-3-yl]pyridine-3-carboxamide], under setting [2], the IC50 lay within 0.001 to 0.05 µM. Take `Cc1cnc2c(N)c(C(=O)N[C@H]3CCc4cc(N5C[C@H]6C[C@@H]5CN6)ccc4C3)sc2n1` (single isomer, unassigned) [Example 11-31]: the IC50 under setting [1] fell in the range of 0.05 to 0.2 µM.
